Columns and labels:
Beagles = assay: General toxicity study, oral once daily for 39 weeks; format: in vivo; settings: suspension in corn oil
Experimental: A general toxicity study was carried out on Beagles receiving cholest-4-èn-3-one oxime in suspension in corn oil by oral administration once daily for 39 weeks. The detailed toxicological analysis of this study made it possible to describe a dose with a no-observed-effect level (NOEL) at 50 mg/kg.

[1] = Pharmacokinetics in the dog, oral and intra-venous, plasma assay by HPLC-MS; format: in vivo; settings: 500 mg/kg oral route, suspension in corn oil, vs intra-venous
Experimental: A study of pharmacokinetics with administration by oral route in suspension in corn oil and by intra-venous route in solution in cremophor/ethanol/water (5%, 10%, 85%) made it possible to calculate the bioavailability of the product. The assay of the product in the plasma is carried out by a high pressure liquid chromatography method coupled with mass spectrometry.

[2] = Competition with DMPO for tBuO radical, EPR quantification of DMPO-tBuO adduct; settings: for % inhibition of the DMPO-tBuO radical: compound 20 mM equimolar to DMPO
Experimental: The nitrones trap the radical species (R.; […]) and allow their observation by electron paramagnetic resonance (EPR) (Degray J. et al. Electron Spin Resonance, Ed N.M. Atherton, Atheaeum Press Ltd; Cambridge, 1994, 14, 246).
The incubation of the DMPO (Interchim-U2469) (20 mM) in deoxygenated toluene (Sigma-Aldrich) in the presence of the tBuO (tert-butoxyl) radical, generated by photolysis, makes it possible to identify and quantify by EPR the signal of the DMPO-tBuO radical. This signal is inhibited in the presence of an equimolar quantity of cholest-4-en-3-one oxime.
The EPR signal allows integration in the form of an area of the signal of the DMPO-tBuO adduct and therefore a relative quantification of this radical entity.
All the experiments were carried out on an X-band Bruker ESP300 device (9.5 GHz) at ambient temperature. The solutions were studied in a quartz EPR tube.

[3] = Oxidation of cumene to cumene hydroperoxide by oxygen with AIBN, HPLC-UV assay; settings: for % of reduction of the oxidation of the cumene / Area of the signal, in relative units, of the cumene hydroperoxide: 2 equivalents of AIBN, 2 hours 45° C.
Experimental: The oxidation of cumene at atmospheric pressure and at 37° C. by oxygen is known and described in the presence of a radical initiator such as AIBN (azobisisobutyronitrile) (Blanchard H. S., J. Am. Chem. Soc. 1959, 81, 4548). A recent publication used this reaction to classify the antioxidant potential of known products such as vitamin E (which is the universal reference), BHT (butylated hydroxytoluene) and other products.
In the following experiment we reproduced the same experimental conditions as those described in the publication of Becker D. A. et al. (J. Am. Chem. Soc. 2002, 124, 4678-4684). A high pressure liquid chromatography method coupled with a UV detector was used to detect cumene hydroperoxide. The column used is an Agilent Zorbax Eclipse XDB RPC8 column (150×4.6 mm) coupled with a UV detector fixed at 254 nm. The gradient used is detailed in the following table: […]
2 ml of cumene (AcrosOrganic) and 0.5 ml of methanol are mixed, azobisisobutyronitrile (AcrosOrganic) is added (2 equivalents) and the solution taken to 45° C. in order to accelerate the chemical reaction. The cumene hydroperoxide appears over time and is assayed by the HPLC method.
The technique used made it possible to compare the appearance of the cumene hydroperoxide in the presence of an antioxidant agent such as the claimed products and vitamin E used as reference product.

[4] = Chemical stability of powder under ICH storage conditions, HPLC-UV total impurities; format: physicochemical; settings: for total impurities: powder
Experimental: These analyses were carried out using a high pressure liquid chromatography method coupled with a UV detector. This method makes it possible to quantify the impurities at a level of 0.05%.

## CC(C)CCC[C@@H](C)[C@H]1CC[C@H]2[C@@H]3CCC4=CC(=NO)CC[C@]4(C)[C@H]3CC[C@]12C [cholest-4-en-3-one oxime]
Beagles
  no-observed-effect level (NOEL): 50 mg/kg
[1]
  bioavailability: 6%
[2]; DMPO 20 mM + compound 20 mM, (t-BuO)2 20 mM, photolysis at 350 nm, 200 s
  Area of the DMPO-tBuO signal at 200 s in relative units: 3 relative units
[2]; DMPO 20 mM + compound 20 mM, (t-BuO)2 20 mM, photolysis at 350 nm, 400 s
  Area of the DMPO-tBuO signal at 400 s in relative units: 5.5 relative units
[2]; DMPO 20 mM in deoxygenated toluene, equimolar compound
  DMPO-tBuO EPR signal in the presence of an equimolar quantity of compound: inhibited
[2]; 200 s
  % inhibition of the DMPO-tBuO radical: 50%
[2]; 400 s
  % inhibition of the DMPO-tBuO radical: 40%
[2]; conclusion of Example 1
  inhibition of the level of the DMPO-tBuO signal radical: ~50%
[2]; rapid kinetics
  kinetics of inhibition of the DMPO-tBuO signal: less than 10 minutes
[3]; 100 μM
  % of reduction of the oxidation of the cumene: 38%
  Area of the signal, in relative units, of the cumene hydroperoxide: 250 relative units
[3]; 200 μM
  % of reduction of the oxidation of the cumene: 57%
  Area of the signal, in relative units, of the cumene hydroperoxide: 175 relative units
[3]; conclusion of Example 2
  reduction of the oxidation of the cumene by oxygen: approximately 40%
[3]; same concentrations, same conditions
  activity compared with vitamin E: activity similar to vitamin E
[4]; after 2 year's storage at 25° C.
  change in the quality of the product: No change in the quality of the product
[4]; after 6 months of storage at 40° C.
  change in the quality of the product: No change in the quality of the product
[4]; 25° C. under 60% relative humidity, T0
  total impurities: 1.8%
[4]; 25° C. under 60% relative humidity, T24 months
  total impurities: 1.8%
[4]; 40° C. under 75% relative humidity, T0
  total impurities: 2.1%
[4]; 40° C. under 75% relative humidity, T6 months
  total impurities: 1.9%

## vitamin E [reference compound]
[3]; 100 μM
  % of reduction of the oxidation of the cumene: 39%
  Area of the signal, in relative units, of the cumene hydroperoxide: 245 relative units

— patent publication US20100267680A1, “USE OF AT LEAST ONE OXIME DERIVATIVE OF CHOLEST-4-EN-3-ONE AS ANTIOXIDANTS” (priority 2007, published 2010)
